Measured values from ChEMBL document CHEMBL1777812, “New 1,4-di-N-oxide-quinoxaline-2-ylmethylene isonicotinic acid hydrazide derivatives as anti-Mycobacterium tuberculosis agents” (Bioorg Med Chem Lett, 2011).

What was measured:
[1] = test system: Mycobacterium tuberculosis; assay: Antimycobacterial activity against Mycobacterium tuberculosis H37Rv ATCC 27294 by microplate Alamar blue assay; assay type: functional, organism-based
[2] = Cytotoxicity against african green monkey Vero cells after 72 hrs by Cell titer Glo luminescent cell viability assay; assay type: cell-based; settings: chlorocebus sabaeus
[3] = Selectivity index, Ratio of CC50 for african green monkey Vero cells to IC90 for Mycobacterium tuberculosis H37Rv ATCC 27294; assay type: toxicity, cell-based

SMILES | IC50 [1] | IC90 [1] | CC50 at 72 h [2] | selectivity ratio [3]
COc1ccc2c(c1)[n+]([O-])c(C(=O)NCc1ccccc1)c(C)[n+]2[O-] | 18.9 µM | 36.4 µM |  | 
Cc1c(C(=O)NCc2ccccc2)[n+]([O-])c2cc(Cl)ccc2[n+]1[O-] | 1.1 µM | 1.25 µM | > 291 µM | > 231
Cc1ccc2c(c1)[n+]([O-])c(C(=O)NCc1ccccc1)c(C)[n+]2[O-] | 8.35 µM | 13 µM | > 309 µM | > 23.8
Cc1c(C(=O)NCc2ccccc2)[n+]([O-])c2cc(C(F)(F)F)ccc2[n+]1[O-] | < 0.81 µM | 1.07 µM | > 265 µM | > 246
Cc1c(C(=O)NCc2ccccc2)[n+]([O-])c2cc(F)ccc2[n+]1[O-] | 2.83 µM | 4.65 µM | > 306 µM | > 65.7
Cc1c(C(=O)NCc2ccccc2)[n+]([O-])c2ccccc2[n+]1[O-] | 4.91 µM | 8.42 µM | > 323 µM | > 38.4
Cc1cc2c(cc1C)[n+]([O-])c(C(=O)NCc1ccccc1)c(C)[n+]2[O-] | 90.8 µM | 296 µM |  | 
Cc1c(/C=N/NC(=O)c2ccncc2)[n+]([O-])c2ccccc2[n+]1[O-] | 1.17 µM | 1.32 µM | > 124 µM | > 93
Cc1c(/C=N/NC(=O)c2ccncc2)[n+]([O-])c2cc(Cl)ccc2[n+]1[O-] | 1.04 µM | 1.16 µM | 55.8 µM | 48.1
COc1ccc2c(c1)[n+]([O-])c(/C=N/NC(=O)c1ccncc1)c(C)[n+]2[O-] | < 0.59 µM | 50.6 µM |  | 
Cc1ccc2c(c1)[n+]([O-])c(/C=N/NC(=O)c1ccncc1)c(C)[n+]2[O-] | 1.33 µM | 18.2 µM | 52.1 µM | 2.86
Cc1cc2c(cc1C)[n+]([O-])c(/C=N/NC(=O)c1ccncc1)c(C)[n+]2[O-] | 1.22 µM | 2.57 µM | > 124 µM | > 43.5
Cc1c(/C=N/NC(=O)c2ccncc2)[n+]([O-])c2cc(F)ccc2[n+]1[O-] | < 0.58 µM | 23.1 µM | 76.5 µM | 3.31
Cc1c(/C=N/NC(=O)c2ccncc2)[n+]([O-])c2cc(C(F)(F)F)ccc2[n+]1[O-] | 1.5 µM | 3.5 µM | 70 µM | 20
NNC(=O)c1ccncc1 [ISONIAZID] |  | 0.21 µM | > 500 µM | > 20000
